Where a SMILES comes first, the peptide text is derived from it. [ ]: non-standard residue; d: D form. The star is where a group is joined. Hexanoyl = CCCCCC(=O)*; Ahx = NCCCCCC(=O)O
Legend:
MRC-5 cells = test: TGFβ-stimulated αSMA expression in MRC-5 cells (HTRF); assay type: cell-based; set-up: key to Significant reduction in αSMA via HTRF compared to TGFβ alone: NS = no statistically significant change in aSMA expression; + = p < 0.05; ++ = p < 0.01; +++ = p < 0.005; ++++ = p < 0.001; details: for Significant reduction in αSMA via HTRF compared to TGFβ alone: TGFβ 1 ng/ml, 48 h
Protocol: In this study, pulmonary-derived immortalized fibroblasts, MRC-5 cells, were cultured as a model of the early transition to fibrosis, and αSMA expression was measured using an immunodetection system driven by homogenous time-resolved fluorescence (HTRF) technology. This detection system produces a fluorescent signal in the presence of αSMA in cell lysates. Cells were grown to confluence in 96-well culture plates in complete media, and then transitioned to serum-free media for 2 hours. Next TGFβ (final 1 ng/ml in serum-free media) was added to the cells to stimulate the fibrotic transition. After 2 hours, media containing either HGF or HGF combined with one of the compounds was added to the cells. After incubation for 48 hours, cells were lysed and processed for αSMA HTRF to detect the levels of αSMA expression and compared to TGFβ-stimulated cultures. Statistical analysis consisted of 1-way ANOVA with a Dunnett's multiple comparison's post-test.

[1] = tested on: C57BL/6 mice, bleomycin-induced pulmonary fibrosis; test: Bleomycin-induced pulmonary fibrosis in mice; assay type: in vivo; set-up: key to Collagen, improvement in BLM-induced alterations versus disease control / Alpha-Smooth Muscle Actin, improvement in BLM-induced alterations versus disease control / Body Weight, improvement in BLM-induced alterations versus disease control / Right Lung Weight, improvement in BLM-induced alterations versus disease control / Hydroxyproline, improvement in BLM-induced alterations versus disease control: + = >5-25% improvement vs disease control; ++ = >26-50% improvement vs disease control; +++ = >51-100% improvement v disease control; NS means not significant
Protocol: Lung fibrosis in C57BL/6 mice is induced by a single […] injection of the chemotherapy drug bleomycin. Mice are treated with vehicle or test compound. At termination (study day 28), one lung is weighed, with increased weight indicating more advanced fibrosis. Lung tissue is also homogenized for hydroxyproline, collagen, and TGF-β quantification. Lung tissue is also formalin-fixed and further processed for H&E, collagen morphometry, Ashcroft's score, and both α-SMA and TUNEL expression analyses. Plasma is analyzed by multiplex bead array for MMP-2, MMP-9, IL-1β, IL-6, IL-12, and TNF-α expression.
The experimental design described in Example B1 with the following changes was used to assess the ability of Compound 1a to reduce pulmonary fibrosis. Briefly, Male C57BL/6 mice (Envigo) […] were used. The mice were 3.5-4 months old and ˜24-30 g by weight. On day −1 animals were randomized based on body weight and the animals were assigned with a permanent number by ear notching. Cages were identified by cage cards indicating the study code, group number, sex, dose, cage number, number of animals and animal number details.
On day 0, all animals (except the sham control animals) were administered bleomycin (0.03 U in 50 μl normal saline) intratracheally (i.t.) under Ketamine+Xylazine anesthesia. The sham control animals were dosed with 50 μl of normal saline intratracheally. Pirfenidone was used as a positive control; this compound is known to downregulate growth factors and procollagens to reduce fibrosis and is an approved drug for the treatment of idiopathic pulmonary fibrosis.
Vehicle, pirfenidone and test Compound 1a dosing was initiated from day 3 to day 21 as described in the following Table 2. On day 21 whole blood was collected 1-hour post-dose into EDTA and then processed to plasma. Right lungs were then collected, weighed, snap frozen and later homogenized for biochemical analysis. Hydroxyproline, collagen and TGF-Beta levels were measured in the right lung homogenates.

[2] = tested on: BALB/c mice, CCl4 mouse model of liver fibrosis; test: CCl4-induced liver fibrosis, plasma AST; assay type: in vivo
Protocol: Liver fibrosis in BALB/c mice was induced by biweekly intraperitoneal injections of carbon tetrachloride (CCl4) from study day 0 to 43. Mice were treated with vehicle, Compound 1a, or positive control, SB535334, beginning at study day 21. At termination (study day 43), plasma was tested for liver function via levels of aspartate aminotransferase (AST).
AST can be used as a marker of liver damage, because increased levels are released in the blood stream in chronic liver disease.

[3] = tested on: THP-1-differentiated macrophages; test: Pro-inflammatory cytokine expression in LPS-challenged THP-1-differentiated macrophages; assay type: cell-based, human; set-up: key to IL-6, significant reduction in culture supernatant vs LPS treatment / TNF-α, significant reduction in culture supernatant vs LPS treatment / IL-1β, significant reduction in culture supernatant vs LPS treatment: “NS” indicates a non-significant reduction in the indicated cytokine; “+” indicates a p value <0.05 in Tukey post test; “++” indicates a p value <0.01 in Tukey post test; details: for IL-1β, significant reduction in culture supernatant vs LPS treatment / IL-6, significant reduction in culture supernatant vs LPS treatment / TNF-α, significant reduction in culture supernatant vs LPS treatment: 20 min pre-treatment, 24 hrs LPS
Protocol: Differentiation with PMA causes THP-1 monocyte cells to acquire functional and morphological resemblance to macrophages. LPS interacts with THP-1 differentiated macrophage through the toll-like receptor 4, triggering the inflammatory response and stimulating pro-inflammatory cytokine release and eventually leading to cellular death. Compounds were tested to determine their anti-inflammatory effects on LPS-challenged macrophage cultures. THP-1-differentiated macrophages were treated with test compounds for 20 minutes, followed by 24 hrs of LPS challenge. Culture supernatants were then collected to analyzed for the presence of pro-inflammatory cytokines: […], interleukin 6 (IL-6) and tumor necrosis factor α (TNF-α).
Cytokine quantification in cell culture supernatants was accomplished by HTRF kits to assess levels of IL-1β (Human IL-1β kit, #62HIL1BPEG, Cisbio) and IL-6 (Human IL-6 kit, 62HIL06PET, Cisbio), and by ELISA to determine the levels of TNF-α (Human TNF-α ELISA kit, KHC3011, ThermoFisher).
Data analysis was performed via 1-way ANOVA with Tukey post-test compared to LPS treatment cultures using Prism statistical software (GraphPad). Tabular data indicates significance of reduction in culture supernatants for the indicated analyte at the indicated doses.

[4] = dose 100 mg/kg PO twice daily, right lung homogenate, day 21

**Q.** With “HGF: Hepatocyte growth factor protein, added alone or with test compounds” as the compound, how does the “Significant reduction in αSMA via HTRF compared to TGFβ alone” value (shortened to “Significant reduction in αSMA via HTRF”) (MRC-5 cells; HGF 0.01 ng/ml alone) read?
**A.** The value was “NS”.

**Q.** And the “Significant reduction in αSMA via HTRF” value (MRC-5 cells; HGF 1 ng/ml alone)?
**A.** Its value is “NS”.

**Q.** What about the “Significant reduction in αSMA via HTRF” value (MRC-5 cells; HGF 10 ng/ml alone) of the same compound?
**A.** Its value is “+++ (+++ = p < 0.005)”.

**Q.** And the “αSMA expression, HGF alone” value (MRC-5 cells; TGFβ-stimulated MRC-5 cells)?
**A.** Its value is “significantly reduce αSMA expression at high (10 ng/ml) but not low (0.01 or 1 ng/ml) concentrations”.

**Q.** How did the “bleomycin-induced increases in TGF-β in right lung homogenates” value ([1]; all doses, day 21) turn out when `Cc1ccc(=O)n(-c2ccccc2)c1` [Pirfenidone, reference compound] was run?
**A.** Its value is “significantly protected against bleomycin-induced increases in TGF-β”.

**Q.** What about the “protection against bleomycin-induced body weight loss” value ([1]; all treatment groups, over the study period) of the same compound?
**A.** The value was “did not protect against body weight loss”.

**Q.** What about the “Body Weight, improvement in BLM-induced alterations versus disease control” value ([1]; dose 100 mg/kg PO twice daily, days 3-21) of the same compound?
**A.** Its value is “NS”.

**Q.** And the “Right Lung Weight, improvement in BLM-induced alterations versus disease control” value ([1]; dose 100 mg/kg PO twice daily, days 3-21, day 21)?
**A.** The value was “+ (+ = >5-25% improvement vs disease control)”.

**Q.** And the “Alpha-Smooth Muscle Actin, improvement in BLM-induced alterations versus disease control” value ([1]; dose 100 mg/kg PO twice daily, day 21)?
**A.** The value was “+ (+ = >5-25% improvement vs disease control)”.

**Q.** And the “Collagen, improvement in BLM-induced alterations versus disease control” value [1, 4]?
**A.** The value was “++ (++ = >26-50% improvement vs disease control)”.

**Q.** And the “Hydroxyproline, improvement in BLM-induced alterations versus disease control” value [1, 4]?
**A.** Its value is “NS”.

**Q.** And the “TGF-Beta, improvement in BLM-induced alterations versus disease control” value [1, 4]?
**A.** Its value is “+++ (+++ = >51-100% improvement v disease control)”.

**Q.** And the “alpha-smooth muscle actin morphometory” value ([1]; other doses of Compound 1a, pirfenidone doses, day 21)?
**A.** The value was “insignificant decreases”.

**Q.** `Cc1cccc(-c2[nH]c(C(C)(C)C)nc2-c2ccc3nccnc3c2)n1` [SB525334, reference compound] was tested. Which “AST in plasma, improvement compared to disease control” value ([2]; Dose 30, from study day 21, termination day 43) did it give?
**A.** Its value is “− (− = change of <5% compared to disease control)”.

**Q.** What about the “AST levels in plasma compared to CCl4-treated mice receiving vehicle” value ([2]; positive control) of the same compound?
**A.** Its value is “significant increases”.

**Q.** What does the source list for `CCCCCC(=O)N[C@@H](Cc1ccc(O)cc1)C(=O)N[C@H](C(=O)NCCCCCC(N)=O)[C@@H](C)CC` [Compound A19-AM, Dihexa] (Hexanoyl-Tyr-Ile-[Ahx]-NH2)?
**A.** αSMA expression (MRC-5 cells; 1 uM, combined with 0.01 ng/ml HGF): significantly reduced αSMA; Significant reduction in αSMA via HTRF compared to TGFβ alone (MRC-5 cells; test compound 1 nM, HGF 0.01 ng/ml): NS; Significant reduction in αSMA via HTRF compared to TGFβ alone (MRC-5 cells; test compound 1 μM, HGF 0.01 ng/ml): ++++ (++++ = p < 0.001); IL-1β, significant reduction in culture supernatant vs LPS treatment ([3]; 0.1 nM): NS; IL-6, significant reduction in culture supernatant vs LPS treatment ([3]; 0.1 nM): NS; TNF-α, significant reduction in culture supernatant vs LPS treatment ([3]; 0.1 nM): NS; IL-1β, significant reduction in culture supernatant vs LPS treatment ([3]; 10 nM): ++ (“++” indicates a p value <0.01 in Tukey post test); IL-6, significant reduction in culture supernatant vs LPS treatment ([3]; 10 nM): + (“+” indicates a p value <0.05 in Tukey post test); TNF-α, significant reduction in culture supernatant vs LPS treatment ([3]; 10 nM): + (“+” indicates a p value <0.05 in Tukey post test); IL-1β, significant reduction in culture supernatant vs LPS treatment ([3]; 1000 nM): + (“+” indicates a p value <0.05 in Tukey post test); IL-6, significant reduction in culture supernatant vs LPS treatment ([3]; 1000 nM): ++ (“++” indicates a p value <0.01 in Tukey post test); TNF-α, significant reduction in culture supernatant vs LPS treatment ([3]; 1000 nM): + (“+” indicates a p value <0.05 in Tukey post test); expression of IL-1β and TNF-α ([3]; at at least one tested dose): significantly reduced; expression of IL-6 ([3]; at at least one tested dose): significantly reduced
